The values below come from patent US11344546B2, “Benzamide compounds” (Recurium IP Holdings, LLC, priority 2018, dated 2022).

SMILES strings stand for the structures.

Assay [1] relates to RS4;11 cells. The experiment in a line: RS4;11 cell proliferation assay (CellTiter-Glo). Conditions: Homo sapiens, 48 h compound treatment, read-out: RS4;11 (nM) CTG IC50. The format is cell-based. The protocol:
(§1) Cell proliferation was measured using the CellTiter-Glo@ Luminescent Cell Viability Assay. The assay involved the addition of a single reagent (CellTiter-Glo® Reagent) directly to cells cultured in serum-supplemented medium. RS4;11 (ATC, CRL-1873) cells were cultured according to ATCC recommendations and were seeded at 50,000 cells per well. NCI-H1963 cells (ATCC CRL-5982) were cultured according to ATCC recommendations and seeded at 12,000 cells per well.
(§2) Each compound evaluated was prepared as a DMSO stock solution (10 mM). Compounds were tested in duplicate on each plate, with a 10-point serial dilution curve (1:3 dilution). Compound treatment (1.0 μL) was added from the compound dilution plate to the cell plate. The highest compound concentration was 10 μM (final), with a 0.1% final DMSO concentration. Plates were then incubated at 37° C., 5% CO2. After 48 h of compound treatment for RS4;11 or 72 h for NCI-H1963, cell plates were equilibrated at rt for approximately 30 mins. An equi-volume amount of CellTiter-Glo@ Reagent (40 μL) was added to each well. Plates were mixed for 2 mins on an orbital shaker to induce cell lysis and then incubated at RT for 10 mins to stabilize the luminescent signal. Luminescence was recorded using a Envision plate reader according to CellTiter-Glo protocol. IC50 of each compound was calculated using GraphPad Prism by nonlinear regression analysis.

Assay [2] deals with NCI-H1963 cells. Description: NCI-H1963 cell proliferation assay (CellTiter-Glo). It is filed as cell-based. The following applies: Homo sapiens, 72 h compound treatment, read-out: H1963 (nM) CTG IC50. The protocol: as §1, §2

For `CC1(C)CCC(CN2CCN(c3ccc(C(=O)NS(=O)(=O)c4ccc(NCC5CCOCC5)c([N+](=O)[O-])c4)c(Oc4cnc5[nH]ccc5c4)c3)CC2)=C(c2ccc(Cl)cc2)C1` [ABT-199, reference compound], the values for the IC50 in assay [1] and in assay [2] were less than 100 nM and more than 1000 nM, respectively.
Taken in the same sequence, the figures for `CC1(C)CCC(c2ccc(Cl)cc2)=C(CN2CCN(c3ccc(C(=O)NS(=O)(=O)c4ccc(N[C@H](CCN5CCOCC5)CSc5ccccc5)c(S(=O)(=O)C(F)(F)F)c4)cc3)CC2)C1` [ABT-263, reference compound] were less than 100 nM and not above 500 nM.
For `CC1(C)CCC(C23CC(Cl)(C2)C3)=C(CN2CCN(c3ccc(C(=O)NS(=O)(=O)c4ccc(N[C@H](CCN5CCOCC5)CSc5ccccc5)c(S(=O)(=O)C(F)(F)F)c4)cc3)CC2)C1` [Example 45, (R)-4-(4-((2-(3-Chlorobicyclo[1.1.1]pentan-1-yl)-5,5-dimethylcyclohex-1-en-1-yl)methyl)piperazin-1-yl)-N-((4-((4-morpholino-1-(phenylthio)butan-2-yl)amino)-3-((trifluoromethyl)sulfonyl)phenyl)sulfonyl)benzamide], in assay [1], the IC50 was more than 1000 nM.
For the compound `CN(CCO)CC[C@H](CSc1ccccc1)Nc1ccc(S(=O)(=O)NC(=O)c2ccc(N3CCN(CC4=C(C56CC(C(F)(F)F)(C5)C6)CC(C)(C)CC4)CC3)cc2)cc1S(=O)(=O)C(F)(F)F` [Example 51, (R)-4-(4-((4,4-dimethyl-2-(3-(trifluoromethyl)bicyclo[1.1.1]pentan-1-yl)cyclohex-1-en-1-yl)methyl)piperazin-1-yl)-N-((4-((4-((2-hydroxyethyl)(methyl)amino)-1-(phenylthio)butan-2-yl)amino)-3-((trifluoromethyl)sulfonyl)phenyl)sulfonyl)benzamide], the IC50 in assay [1] fell in the range of 100 to 1000 nM.
As for `CC1(C)CCC(CN2CCN(c3ccc(C(=O)NS(=O)(=O)c4ccc(N[C@H](CCN5CCOCC5)CSc5ccccc5)c(S(=O)(=O)C(F)(F)F)c4)cc3)CC2)=C(C23CC(C)(C2)C3)C1` [Example 52, (R)-4-(4-((4,4-Dimethyl-2-(3-methylbicyclo[1.1.1]pentan-1-yl)cyclohex-1-en-1-yl)methyl)piperazin-1-yl)-N-((4-((4-morpholino-1-(phenylthio)butan-2-yl)amino)-3-((trifluoromethyl)sulfonyl)phenyl)sulfonyl)benzamide], the IC50 in assay [1] lay in the range of 100 to 1000 nM.
Turning to `CCC12CC(C3=C(CN4CCN(c5ccc(C(=O)NS(=O)(=O)c6ccc(N[C@H](CCN7CCOCC7)CSc7ccccc7)c(S(=O)(=O)C(F)(F)F)c6)cc5)CC4)CCC(C)(C)C3)(C1)C2` [Example 53, (R)-4-(4-((2-(3-Ethylbicyclo[1.1.1]pentan-1-yl)-4,4-dimethylcyclohex-1-en-1-yl)methyl)piperazin-1-yl)-N-((4-((4-morpholino-1-(phenylthio)butan-2-yl)amino)-3-((trifluoromethyl)sulfonyl)phenyl)sulfonyl)benzamide], the IC50 in assay [1] is more than 1000 nM.
On to `CC1(C)CCC(CN2CCN(c3ccc(C(=O)NS(=O)(=O)c4ccc(N[C@H](CCN5CCOCC5)CSc5ccccc5)c(S(=O)(=O)C(F)(F)F)c4)cc3)CC2)=C(C23CC(C(F)(F)F)(C2)C3)C1` [Example 54, (R)-4-(4-((4,4-dimethyl-2-(3-(trifluoromethyl)bicyclo[1.1.1]pentan-1-yl)cyclohex-1-en-1-yl)methyl)piperazin-1-yl)-N-((4-((4-morpholino-1-(phenylthio)butan-2-yl)amino)-3-((trifluoromethyl)sulfonyl)phenyl)sulfonyl)benzamide], for which, in assay [1], the IC50 is more than 1000 nM.
Regarding `CC1(C)CCC(CN2CCN(c3ccc(C(=O)NS(=O)(=O)c4ccc(N[C@H](CCN5CCOCC5)CSc5ccccc5)c([N+](=O)[O-])c4)cc3)CC2)=C(C23CC(C)(C2)C3)C1` [Example 56, (R)-4-(4-((4,4-dimethyl-2-(3-methylbicyclo[1.1.1]pentan-1-yl)cyclohex-1-en-1-yl)methyl)piperazin-1-yl)-N-((4-((4-morpholino-1-(phenylthio)butan-2-yl)amino)-3-nitrophenyl)sulfonyl)benzamide], the figures for the IC50 in assay [1] and in assay [2] were more than 1000 nM and 500 to 1000 nM, respectively.
As to `CCC12CC(C3=C(CN4CCN(c5ccc(C(=O)NS(=O)(=O)c6ccc(N[C@H](CCN7CCOCC7)CSc7ccccc7)c([N+](=O)[O-])c6)cc5)CC4)CCC(C)(C)C3)(C1)C2` [Example 57, (R)-4-(4-((2-(3-ethylbicyclo[1.1.1]pentan-1-yl)-4,4-dimethylcyclohex-1-en-1-yl)methyl)piperazin-1-yl)-N-((4-((4-morpholino-1-(phenylthio)butan-2-yl)amino)-3-nitrophenyl)sulfonyl)benzamide], the IC50 in assay [1] and in assay [2] was more than 1000 nM throughout.
As to `CC1(C)CCC(C23CC(C(F)F)(C2)C3)=C(CN2CCN(c3ccc(C(=O)NS(=O)(=O)c4ccc(N[C@H](CCN5CCC(O)CC5)CSc5ccccc5)c(S(=O)(=O)C(F)(F)F)c4)cc3)CC2)C1` [Example 65, (R)-4-(4-((2-(3-(difluoromethyl)bicyclo[1.1.1]pentan-1-yl)-5,5-dimethylcyclohex-1-en-1-yl)methyl)piperazin-1-yl)-N-((4-((4-(4-hydroxypiperidin-1-yl)-1-(phenylthio)butan-2-yl)amino)-3-((trifluoromethyl)sulfonyl)phenyl)sulfonyl)benzamide], the IC50 in assay [2] lay within 500 to 1000 nM.
Consider `CC1(C)CCC(CN2CCN(c3ccc(C(=O)NS(=O)(=O)c4ccc(N[C@H](CCN5CCC(O)CC5)CSc5ccccc5)c(S(=O)(=O)C(F)(F)F)c4)cc3)CC2)=C(C23CC(C)(C2)C3)C1` [Example 68, (R)-4-(4-((4,4-dimethyl-2-(3-methylbicyclo[1.1.1]pentan-1-yl)cyclohex-1-en-1-yl)methyl)piperazin-1-yl)-N-((4-((4-(4-hydroxypiperidin-1-yl)-1-(phenylthio)butan-2-yl)amino)-3-((trifluoromethyl)sulfonyl)phenyl)sulfonyl)benzamide], for which the IC50 in assay [1] was 100 to 1000 nM; in assay [2], not above 500 nM.
Consider `CC1(C)CCC(CN2CCN(c3ccc(C(=O)NS(=O)(=O)c4ccc(N[C@H](CCN5CCC(O)C5)CSc5ccccc5)c(S(=O)(=O)C(F)(F)F)c4)cc3)CC2)=C(C23CC(C(F)F)(C2)C3)C1` (stereo partly drawn) [Example 71], for which the IC50 in assay [2] was 500 to 1000 nM.
As for `O=C(NS(=O)(=O)c1ccc(NCC2CCOCC2)c([N+](=O)[O-])c1)c1ccc(N2CCN(CC3=C(C45CC(Cl)(C4)C5)CCCC3)CC2)cc1Oc1cnc2[nH]ccc2c1` [Example 72, 2-((1H-pyrrolo[2,3-b]pyridin-5-yl)oxy)-4-(4-((2-(3-chlorobicyclo[1.1.1]pentan-1-yl)cyclohex-1-en-1-yl)methyl)piperazin-1-yl)-N-((3-nitro-4-(((tetrahydro-2H-pyran-4-yl)methyl)amino)phenyl)sulfonyl)benzamide], the IC50 in assay [1] was more than 1000 nM.
